This is an account of results in patent publication EP0365134A1, “Synergistic compositions of renal dopaminergic agent and angiotensin converting enzyme inhibitors” (priority 1988, dated 1990).

This experiment in a line: Renal clearance study in unanesthetized dogs: effective renal plasma flow (PAH clearance) and glomerular filtration rate (creatinine clearance). It is filed as in vivo. The following applies: alone. The method, then:
A modification of the renal function protocol, described in the prior art, was used for renal clearance studies in adult, trained, unanesthetized, fasted, female mongrel dogs, lightly restrained on their backs on a cradle-like board constructed specifically for this purpose. […] All dogs were given an oral water load of 500 ml of tap water thirty minutes prior to initiation of the study. […] Suitable plasma levels of creatinine and p-aminohippuric acid were obtained by a thirty minute infusion of this solution prior to starting of the initial urine collection (U₁) In addition, 1.5 ml/kg of a 1% creatinine solution in phosphate buffer was injected intravenously fifteen minutes prior to collection of U₁. Replicate urine collections were obtained at ten minute intervals throughout the experiment. The bladder was emptied by an indwelling catheter and complete urine collections were assured by rinsing the bladder with 10 mls of warm water at the end of each collection interval. This procedure was followed by an air washout. Venous blood samples were drawn from an indwelling catheter at the mid-point of each clearance period. Urine volumes were recorded at the time of collection. Plasma and urine samples were stored frozen, after collection, until analyzed. Analyses for creatinine and p-aminohippuric acid were made, by colorimetry, using standard AutoAnalyzer methodologies. These analyses were made simultaneously on each sample. Peak intensities were identified electronically, recorded on "on-line" teletype, stored and subsequently analyzed mathematically by time-shared computer against appropriate standards. Data were computed from linear least square regression lines, and quality control standards were analyzed simultaneously to evaluate system reproducibility and reliability. The bladder was emptied upon beginning the study and three control clearances (U₁-U₃, Phase 1) were obtained. […] Post-drug clearance C₄-C₆, C₇-C₉, C₁₀-C₁₂ (Phases II, III and IV) were collected immediately, with no delay between C₃ and C₄. […] Four dogs were used for each treatment. All compounds were weighed as free base content.

For `CS(=O)(=O)O.Oc1ccc(C2CNCCc3c2cc(O)c(O)c3Cl)cc1` (centres unmarked) [Fenoldopam, 6-Chloro-7,8-dihydroxy-1-(4-hydroxyphenyl)-2,3,4,5-tetrahydro-1H-3-benzazepine methyl sulfonate], the “ERPF ( % from control)” value is, setting by setting: (Fenoldopam 2.5 mg/kg orally) 34 ± 5 % from control; (Fenoldopam 5.0 mg/kg orally) 47 ± 16 % from control; (Fenoldopam 10 mg/kg orally) 30 ± 2 % from control; (Fenoldopam 20 mg/kg orally) 44 ± 15 % from control. Further, the “GFR ( % from control)” value by setting is: (Fenoldopam 2.5 mg/kg orally) -2 ± 2 % from control; (Fenoldopam 5.0 mg/kg orally) 6 ± 5 % from control; (Fenoldopam 10 mg/kg orally) -1 ± 2 % from control; (Fenoldopam 20 mg/kg orally) 1 ± 3 % from control.
